Measured values from PubChem BioAssay AID1259407 (Chemical Carcinogenesis Research Information System (CCRIS), 2018).
Activity calls are given as the source filed them. How the calls were made is not given here.

Test system: CCRIS mutagenicity, Ames/micronucleus/aberration tests
Experiment: CCRIS mutagenicity studies
[1] = Test System: AMES SALMONELLA TYPHIMURIUM, Strain/Indicator: TA97, Metabolic Activation: NONE, Method: PREINCUBATION
[2] = Test System: AMES SALMONELLA TYPHIMURIUM, Strain/Indicator: TA98, Metabolic Activation: NONE, Method: PREINCUBATION
[3] = Test System: AMES SALMONELLA TYPHIMURIUM, Strain/Indicator: TA100, Metabolic Activation: NONE, Method: PREINCUBATION
[4] = Test System: AMES SALMONELLA TYPHIMURIUM, Strain/Indicator: TA98, Metabolic Activation: NONE, Method: STANDARD PLATE
[5] = Test System: AMES SALMONELLA TYPHIMURIUM, Strain/Indicator: TA1535, Metabolic Activation: NONE, Method: STANDARD PLATE
[6] = Test System: AMES SALMONELLA TYPHIMURIUM, Strain/Indicator: TA1537, Metabolic Activation: NONE, Method: STANDARD PLATE

COc1cc(NCCCCCNC(C)C)c2ncccc2c1
mutagenic call [1]: inactive; negative
mutagenic call (Test System: AMES SALMONELLA TYPHIMURIUM, Strain/Indicator: TA97, Metabolic Activation: RAT, LIVER, S-9, PHENOBARBITAL AND BETA-NAPHTHOFLAVONE, Method: PREINCUBATION): active; positive
mutagenic call [2]: inactive; negative
mutagenic call (Test System: AMES SALMONELLA TYPHIMURIUM, Strain/Indicator: TA98, Metabolic Activation: RAT, LIVER, S-9, PHENOBARBITAL AND BETA-NAPHTHOFLAVONE, Method: PREINCUBATION): inactive; negative
mutagenic call [3]: inactive; negative
mutagenic call (Test System: AMES SALMONELLA TYPHIMURIUM, Strain/Indicator: TA100, Metabolic Activation: RAT, LIVER, S-9, PHENOBARBITAL AND BETA-NAPHTHOFLAVONE, Method: PREINCUBATION): inactive; negative
mutagenic call (Test System: AMES SALMONELLA TYPHIMURIUM, Strain/Indicator: TA102, Metabolic Activation: NONE, Method: PREINCUBATION): inactive; negative
mutagenic call (Test System: AMES SALMONELLA TYPHIMURIUM, Strain/Indicator: TA102, Metabolic Activation: RAT, LIVER, S-9, PHENOBARBITAL AND BETA-NAPHTHOFLAVONE, Method: PREINCUBATION): inactive; negative
mutagenic call (Test System: E.COLI, Strain/Indicator: WP2UVRA/PKM101, Metabolic Activation: NONE, Method: PREINCUBATION): inactive; negative
mutagenic call (Test System: E.COLI, Strain/Indicator: WP2UVRA/PKM101, Metabolic Activation: RAT LIVER S-9, PHENOBARBITAL AND 5,6-BENZOFLAVONE, Method: PREINCUBATION): inactive; negative

O=NN(CC(=O)O)CC1(O)OCC(O)C(O)C1O (centres undefined)
mutagenic call [4]: inactive; negative
mutagenic call (Test System: AMES SALMONELLA TYPHIMURIUM, Strain/Indicator: TA98, Metabolic Activation: RAT, LIVER, S-9, AROCLOR 1254, Method: PREINCUBATION): inactive; negative
mutagenic call (Test System: AMES SALMONELLA TYPHIMURIUM, Strain/Indicator: TA98, Metabolic Activation: RAT, LIVER, S-9, AROCLOR 1254, Method: STANDARD PLATE): inactive; negative
mutagenic call (Test System: AMES SALMONELLA TYPHIMURIUM, Strain/Indicator: TA100, Metabolic Activation: NONE, Method: STANDARD PLATE): inactive; negative
mutagenic call (Test System: AMES SALMONELLA TYPHIMURIUM, Strain/Indicator: TA100, Metabolic Activation: RAT, LIVER, S-9, AROCLOR 1254, Method: PREINCUBATION): inactive; negative
mutagenic call (Test System: AMES SALMONELLA TYPHIMURIUM, Strain/Indicator: TA100, Metabolic Activation: RAT, LIVER, S-9, AROCLOR 1254, Method: STANDARD PLATE): inactive; negative
mutagenic call [5]: inactive; negative
mutagenic call (Test System: AMES SALMONELLA TYPHIMURIUM, Strain/Indicator: TA1535, Metabolic Activation: RAT, LIVER, S-9, AROCLOR 1254, Method: STANDARD PLATE): inactive; negative
mutagenic call [6]: inactive; negative
mutagenic call (Test System: AMES SALMONELLA TYPHIMURIUM, Strain/Indicator: TA1537, Metabolic Activation: RAT, LIVER, S-9, AROCLOR 1254, Method: STANDARD PLATE): inactive; negative
mutagenic call (Test System: AMES SALMONELLA TYPHIMURIUM, Strain/Indicator: TA1538, Metabolic Activation: NONE, Method: STANDARD PLATE): inactive; negative
mutagenic call (Test System: AMES SALMONELLA TYPHIMURIUM, Strain/Indicator: TA1538, Metabolic Activation: RAT, LIVER, S-9, AROCLOR 1254, Method: STANDARD PLATE): inactive; negative

CC(C(=O)O)c1ccc2c(c1)[nH]c1ccc(Cl)cc12 (centres undefined)
mutagenic call (Test System: AMES SALMONELLA TYPHIMURIUM, Strain/Indicator: TA98, Metabolic Activation: RAT, LIVER, S-9, PCB, Method: STANDARD PLATE): inactive; negative
mutagenic call (Test System: AMES SALMONELLA TYPHIMURIUM, Strain/Indicator: TA100, Metabolic Activation: RAT, LIVER, S-9, PCB, Method: STANDARD PLATE): inactive; negative
mutagenic call (Test System: AMES SALMONELLA TYPHIMURIUM, Strain/Indicator: TA1537, Metabolic Activation: RAT, LIVER, S-9, PCB, Method: STANDARD PLATE): inactive; negative
mutagenic call (Test System: AMES SALMONELLA TYPHIMURIUM, Strain/Indicator: TA1538, Metabolic Activation: RAT, LIVER, S-9, PCB, Method: STANDARD PLATE): inactive; negative
mutagenic call (Test System: E. COLI, Strain/Indicator: WP2 UVRA, Metabolic Activation: RAT, LIVER, S-9, PCB, Method: STANDARD PLATE): inactive; negative

CCOP(=S)(OCC)Oc1cc(C)nc(C(C)C)n1
mutagenic call (Test System: AMES SALMONELLA TYPHIMURIUM, Strain/Indicator: TA97, Metabolic Activation: HAMSTER, LIVER, S-9, AROCLOR 1254 (10 OR 30%), Method: PREINCUBATION): inactive; negative
mutagenic call [1]: inactive; negative
mutagenic call (Test System: AMES SALMONELLA TYPHIMURIUM, Strain/Indicator: TA97, Metabolic Activation: RAT, LIVER, S-9, AROCLOR 1254 (10 OR 30%), Method: PREINCUBATION): inactive; negative
mutagenic call (Test System: AMES SALMONELLA TYPHIMURIUM, Strain/Indicator: TA98, Metabolic Activation: HAMSTER, LIVER, S-9, AROCLOR 1254 (10 OR 30%), Method: PREINCUBATION): inactive; negative
mutagenic call [2]: inactive; negative
mutagenic call [4]: inactive; negative
mutagenic call (Test System: AMES SALMONELLA TYPHIMURIUM, Strain/Indicator: TA98, Metabolic Activation: RAT, LIVER, S-9, AROCLOR 1254 (10 OR 30%), Method: PREINCUBATION): inactive; negative
mutagenic call (Test System: AMES SALMONELLA TYPHIMURIUM, Strain/Indicator: TA98, Metabolic Activation: S-9, NADPH GENERATING SYSTEM, Method: STANDARD PLATE): inactive; negative
mutagenic call (Test System: AMES SALMONELLA TYPHIMURIUM, Strain/Indicator: TA100, Metabolic Activation: HAMSTER, LIVER, S-9, AROCLOR 1254 (10 OR 30%), Method: PREINCUBATION): inactive; negative
mutagenic call [3]: inactive; negative
mutagenic call (Test System: AMES SALMONELLA TYPHIMURIUM, Strain/Indicator: TA100, Metabolic Activation: RAT, LIVER, S-9, AROCLOR 1254 (10 OR 30%), Method: PREINCUBATION): inactive; negative
mutagenic call (Test System: AMES SALMONELLA TYPHIMURIUM, Strain/Indicator: TA102, Metabolic Activation: NONE, Method: STANDARD PLATE): inactive; negative
mutagenic call (Test System: AMES SALMONELLA TYPHIMURIUM, Strain/Indicator: TA102, Metabolic Activation: S-9, NADPH GENERATING SYSTEM, Method: STANDARD PLATE): inactive; negative
mutagenic call (Test System: AMES SALMONELLA TYPHIMURIUM, Strain/Indicator: TA1535, Metabolic Activation: HAMSTER, LIVER, S-9, AROCLOR 1254 (10 OR 30%), Method: PREINCUBATION): inactive; negative
mutagenic call (Test System: AMES SALMONELLA TYPHIMURIUM, Strain/Indicator: TA1535, Metabolic Activation: NONE, Method: PREINCUBATION): inactive; negative
mutagenic call [5]: inactive; negative
mutagenic call (Test System: AMES SALMONELLA TYPHIMURIUM, Strain/Indicator: TA1535, Metabolic Activation: RAT, LIVER, S-9, AROCLOR 1254 (10 OR 30%), Method: PREINCUBATION): inactive; negative
mutagenic call (Test System: AMES SALMONELLA TYPHIMURIUM, Strain/Indicator: TA1535, Metabolic Activation: S-9, NADPH GENERATING SYSTEM, Method: STANDARD PLATE): inactive; negative
mutagenic call [6]: inactive; negative
mutagenic call (Test System: AMES SALMONELLA TYPHIMURIUM, Strain/Indicator: TA1537, Metabolic Activation: S-9, NADPH GENERATING SYSTEM, Method: STANDARD PLATE): inactive; negative
mutagenic call (Test System: E. COLI, Strain/Indicator: WP2 UVRA, Metabolic Activation: HAMSTER, LIVER, S-9, AROCLOR 1254, Method: STANDARD PLATE): inactive; negative
mutagenic call (Test System: E. COLI, Strain/Indicator: WP2 UVRA, Metabolic Activation: HAMSTER, LIVER, S-9, Method: STANDARD PLATE): inactive; negative
mutagenic call (Test System: E. COLI, Strain/Indicator: WP2 UVRA, Metabolic Activation: MOUSE, LIVER, S-9, AROCLOR 1254, Method: STANDARD PLATE): inactive; negative
mutagenic call (Test System: E. COLI, Strain/Indicator: WP2 UVRA, Metabolic Activation: MOUSE, LIVER, S-9, Method: STANDARD PLATE): inactive; negative
mutagenic call (Test System: E. COLI, Strain/Indicator: WP2 UVRA, Metabolic Activation: NONE, Method: STANDARD PLATE): inactive; negative
mutagenic call (Test System: E. COLI, Strain/Indicator: WP2 UVRA, Metabolic Activation: RAT, LIVER, S-9, AROCLOR 1254, Method: STANDARD PLATE): inactive; negative
mutagenic call (Test System: E. COLI, Strain/Indicator: WP2 UVRA, Metabolic Activation: RAT, LIVER, S-9, Method: STANDARD PLATE): inactive; negative
